Assay results published in patent publication US10513694B2, “Thienopyrrole compounds and uses thereof” (PROMEGA CORPORATION, priority 2015, dated 2019).

Assays:
Type in all cases: cell-based
[1] = target: T1, purified Nluc (extracellular); Nluc-HALOTAG fusion protein (intracellular) (Oplophorus gracilirostris, UniProt Q9GV45, A31E/A60N/A81I/F95D/I117V/K70R/L54V/L99Q/M102K/N193R/P142E/Q151K/Q38R/Q45L/V71I/Y165I); test: Inhibition of extracellular luciferase activity and enhancement of intracellular BRET; details: HEK293 Nluc-HALOTAG + NANOBRET 618; 10 ng/mL extracellular purified Nluc; 2 hrs
T1 construct: expressed in transfected cells; host or cells: HEK293 (Nluc-HaloTag); purified Nluc added from outside
T1 sequence (Q9GV45 28-196 with tags or gaps with the stated changes limits assumed): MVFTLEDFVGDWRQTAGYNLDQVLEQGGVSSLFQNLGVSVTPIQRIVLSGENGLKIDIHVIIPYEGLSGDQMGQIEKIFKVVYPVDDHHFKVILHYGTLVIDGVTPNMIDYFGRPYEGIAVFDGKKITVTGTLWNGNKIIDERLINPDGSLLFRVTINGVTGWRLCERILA
Description: HEK293 were transiently transfected with Nluc-HALOTAG fusion protein to orient Nluc-HALOTAG inside the cell. 24 hrs post-transfection, cells were labeled with NANOBRET 618 ligand to simulate specific intracellular BRET. Cells were then treated 10 ng/mL purified Nluc to simulate spurious extracellular luminescence. Cells were exposed to a compound response curve of the thienopyrrole compounds, JRW-0013, JRW-0051, JRW-0147, and JRW-0187, for 2 hrs. 10 μM furimazine was added, and the BRET ratio 610/450 nm was measured.

[2] = target: Nluc (Oplophorus gracilirostris, UniProt Q9GV45, A31E/A60N/A81I/F95D/I117V/K70R/L54V/L99Q/M102K/N193R/P142E/Q151K/Q38R/Q45L/V71I/Y165I); test: Multiplex RealTime-Glo / Caspase-Glo 3/7 in A549 cells; parameters: purchased Promega Corporation; details: final, 1 hr
Chain of Nluc (Q9GV45 28-196 with tags or gaps with the stated changes limits assumed): as above
Description: B) A549 cells were plated at 1,000 cells/well in 20 μL F12K media into wells of a Corning 3570 plate (n-4) and incubated overnight. Then, REALTIME-GLO™ MT Cell Viability assay reagents (Promega Corporation) were added to the wells as a 2× solution in 20 μL media. The reaction was incubated for 1 hr. 40 μL of a titration of JRW-0013 or JRW-0147 in CASPASE-GLO® 3/7 assay reagent (Promega Corporation) at 2× concentrations was added. The reactions were incubated at RT, and luminescence was determined at 1 hr.

[3] = target: Nluc luciferase (Oplophorus gracilirostris, UniProt Q9GV45, A31E/A60N/A81I/F95D/I117V/K70R/L54V/L99Q/M102K/N193R/P142E/Q151K/Q38R/Q45L/V71I/Y165I); parameters: expressed in transfected cells; host or cells: HEK293; details: HEK293; 10, 30 or 120 minutes
Chain of Nluc luciferase (Q9GV45 28-196 with tags or gaps with the stated changes limits assumed): as above
Description: HEK293 cells were transiently transfected with Nluc luciferase to express it cytosolically. Twenty-four hours post-transfection, cells were exposed to a compound response curve of the thienopyrrole compound JRW-0147 or JRW-0013 for 10 minutes, 30 minutes, or 120 minutes. 10 μM furimazine was then added, and luminescence was measured.

[4] = tested on: Beta-2 Adrenergic Receptor-Nluc (B2AR-Nluc) fusion protein; test: Cell permeability, B2AR-Nluc in HEK293 or HeLa cells -/+ digitonin
Description: HEK293 or HeLa cells were transiently transfected with Beta-2 Adrenergic Receptor-Nluc (B2AR-Nluc) fusion protein to anchor and orient Nluc cytosolically. 24 hrs post-transfection, cells were treated with −/+50 μg/mL digitonin to emulate a live and lytic scenario, respectively. Then, intact cells and permeabilized cells were exposed to a compound response curve of thienopyrrole compound up to 2 hrs. 10 μM furimazine (Promega Corp.) was added, and luminescence was measured. If a thienopyrrole compound (inhibitor) was permeable, the dose-response curves for both live and permeabilized cells overlapped. However, if a thienopyrrole compound was impermeable, the EC50 was right-shifted in the live cells relative to the permeabilized cells.

SMILES: CCN(C(=O)Cn1c(C(=O)N[C@H]2CC[C@H](C(=O)OC)CC2)cc2sccc21)c1cccc(C)c1 [JRW-0013, trans-methyl-4-(4-(2-(ethyl(m-tolyl)amino)-2-oxoethyl)-4H-thieno[3,2-b]pyrrole-5-carboxamido)cyclohexane-1-carboxylate]
- BRET ratio 610/450 nm across compound dose-response curve (FIGS. 13B-13E) [1]: BRET ratio remained constant
- Caspase, Avg (luminescence) ([2]; Inhibitor 1.73 μM): 12879
- Caspase, Avg (luminescence) ([2]; Inhibitor 2.60 μM): 11813
- Caspase, Avg (luminescence) ([2]; Inhibitor 3.90 μM): 9148
- Caspase, Avg (luminescence) ([2]; Inhibitor 5.85 μM): 8059
- Caspase, Avg (luminescence) ([2]; Inhibitor 8.78 μM): 6703
- Caspase, Avg (luminescence) ([2]; Inhibitor 13.17 μM): 6014
- Caspase, Avg (luminescence) ([2]; Inhibitor 19.75 μM): 5095
- Caspase, Avg (luminescence) ([2]; Inhibitor 29.63 μM): 5132
- Caspase, Avg (luminescence) ([2]; Inhibitor 44.44 μM): 4419
- Caspase, Avg (luminescence) ([2]; Inhibitor 66.67 μM): 4017
- Caspase, Avg (luminescence) ([2]; Inhibitor 100 μM): 3619
- Change in RLUs from cytosolic Nluc (FIG. 16) [3]: decrease the RLUs from Nluc in a dose-dependent manner independent of time
- Cell permeability [4]: cell-permeable
